# Test results reported in patent publication US7354904B2, “Bacteriocin inducer peptides” (priority 2005, dated 2008).
# Experiments:
# [1] = system: Enterococcus faecium LWP 50-52; experiment: Bacteriocin 50-52 production with signal peptide under scaled-up cultivation (bioreactor); assay type: cell-based; conditions: LWP 50-52 + LWP-320, 0.22 mg peptide added after 2 hours of cultivation, about 12 hours
# Procedure: (§1) The antagonistic activity of the bacteriocins produced when using the signal peptide and an inducer strain of bacteria against C. jejuni and S. enteritidis was assessed using a Spot Test. The steps included taking various concentrations of pure preparation (μg/ml) of the bacteriocin in approximately 10 microliters of volume plated onto blood-supplemented Campylobacter agar or Nutrient agar (MPA or Meta Peptone Agar) previously seeded with cells of target bacteria. Plates containing cultures of C. jejuni were grown at about 42° C., under microaerobic conditions. Plates containing S. enteritidis were grown at about 37° C. under aerobic conditions. Activity of the bacteriocin was expressed in arbitrary units (AU) per one milliliter of the preparation at which a visible zone of inhibition of the growth of culture appears (Henderson et al., Archives of Biochemistry and Biophysics, Volume 295, 5-12, 1992; herein incorporated by reference). Specific activity can also expressed as arbitrary units per milligram of pure bacteriocin.
# Isolation of bacteriocin 50-52 involved two steps: (1) the isolation of bacteriocin from the supernatant of the culture fluid and (2) the isolation of bacteriocin from the precipitate of cells of both the inducing and the producing strains. In step 1, the cultures were harvested and separated by centrifugation at about 10,000×g for about 15 minutes to precipitate the cells. The supernatant was applied to an Octyl Sepharose 4 Fast Flow column to recover the bacteriocin using an elution buffer of about 20 mM K2HPO4 buffer, pH approximately 7.0. The cell precipitate from step 2 was suspended in phosphate buffer with about 0.7% NaCl, pH approximately 5.6 (elution buffer) and the suspension was mixed and incubated for about 20 minutes. After incubation, the suspension was centrifuged at about 10,000×g for about 15 minutes. The bacteriocin was isolated from the supernatant using ion-exchange chromatography on Superose SP Fast Flow using an elution buffer containing about 10 mM Tris HCl and about 125 mM NaCl, pH approximately 7.5. Antagonistic activities of the bacteriocin fractions against C. jejuni and S. enteritidis were assessed in a spot-test. The level of purity of bacteriocins was determined by SDS-PAGE. The isoelectric points of the fractions were determined using isoelectricfocusing. Concentrations of protein for all bacteriocin fractions were determined at approximately 215 nm using a spectrophotometric method.
# To evaluate influence of the signal peptide on bacteriocin production under scaled-up cultivation, producing and inducing strains were grown in a V-6 liter bioreactor containing about 6 liters of medium. The ratio of concentrations of cultures and the signal peptide was maintained as in Table 5 for the conditions of 10% Brucella Broth, LWP 50-52, LWP 320, 0.01 mg/ml of LWP 50-52 signal peptide added after about 2 hours of cultivation. Isolation of bacteriocin 50-52 was performed at about 8, 10, 12, and 14 hours of cultivation as described above. The control contained 10% Brucella Broth, LWP 50-52, LWP-320, at a pH of approximately 6.9, at about 37° C., and about 150 rpm. The bacteriocin 50-52 was isolated after about 12 hours of cultivation. For the second condition, the conditions were the same except that approximately 0.22 mg of LWP 50-52 signal peptide was added after 2 hours of cultivation. Each condition was repeated three times.
# [2] = Isoelectric point by isoelectrofocusing; assay type: physicochemical
# Text: FIGS. 1A and 1B are photographs showing the direct detection of signal peptide and bacteriocin OR-7 after SDS-PAGE (A) and isoelectrofocusing (B). […] In FIG. 1A Lane 1-Molecular Mass Markers LMW Range 2,100-12,500 (Amersham Pharmacia Biotech): 2,100; 5,780; 8,400; 12,500 Da. […] Lane 3 contained pI standards (Protein Test Mixture, I Marker Proteins, Serva): 10.0, 9.2, 8.1, 6.9, 5.5, 4.3.
# FIGS. 2A and 2B are photographs showing direct detection of signal peptide and bacteriocin 50-52 after SDS-PAGE (A) and isoelectrofocusing (B). […] Lane 3 contained pI standards (Protein Test Mixture, I Marker Proteins, Serva): 10.0, 8.1, 7.9, 6.4, 5.5, 4.3, 4.1, and 3.8.
# FIGS. 3A and 3B are photographs showing the direct detection of signal peptide and bacteriocin 760 after SDS-PAGE(A) and isoelectrofocusing (B). […] Lane 3 contained pI standards (Protein Test Mixture, I Marker Proteins, Serva): 10.0, 8.1, 7.9, 6.4, 5.5, 4.3, 4.1, and 3.8.
# At the end of 14 hours the supernatant from the cultures was placed into 500 ml centrifuge flasks with about one milliliter of regenerated Sepharose SP Fast Flow (v/v 500: 1). This was incubated for approximately 1 hour at room temperature with stirring. The suspension was then washed with about 100 ml of a 0.2 M TRIS-HCl buffer pH approximately 6.4. The bacteriocins were eluted by centrifugation with about 100 ml of approximately 0.2 M K2HPO4, pH of about 5.8 at about 7,000×g for approximately 10 minutes. Antagonistic activity of the bacteriocin fractions against C. jejuni and S. enteritidis was assessed using a Spot Test as described above. The level of purity of the bacteriocin fractions was determined by SDS-PAGE. The isoelectric points of the fractions were determined by isoelectric focusing. Concentrations of protein for all bacteriocin fractions were determined at 215 nm using a spectrophotometer.
# C. jejuni = experiment: Spot Test, antagonistic activity of isolated signal peptides; assay type: cell-based, Campylobacter jejuni; conditions: isolated signal peptide
# Procedure: as §1
# Its activity was about 200 AU/ml and its molecular weight was about 2.5 kDa, as determined by SDS-PAGE electrophoresis. The isoelectric point (pI) was about 7.9 (FIGS. 1A and 1B).
# Its molecular weight was about 3.1 kDa as measured by SDS-PAGE and the isoelectric point (pI) was about 8.1 (FIGS. 2A and 2B).
# Its molecular weight was about 2.1 kDa as determined by SDS-PAGE electrophoresis and its isoelectric point was about 8.9 (FIGS. 3A and 3B).
# [3] = system: Streptococcus cricetus LWP 760; experiment: Bacteriocin 760 production with signal peptide under scaled-up conditions (bioreactor); assay type: cell-based; conditions: V-61 reactor, 10% Brucella Broth, LWP 760, LWP 320, peptide 0.22 mg added after two hours, pH 6.9, 37° C., 12 hours
Sequence,Activity [1],Increase in the amount of protein vs. control [1],Protein Concentration [1],Specific Activity [1],Amount of Protein/liter of medium ([1]; listed as LWP 50-52 signal Peptide),Amount of Protein/liter of medium ([1]; listed as LWP 50-52 signal peptide),isoelectric point (pI) [2],antagonistic activity (C. jejuni),Activity [3],Increase in the amount of protein produced vs. in control [3],Protein Concentration [3],Protein produced per one liter of medium [3],Specific Activity [3]
"TNVTKSWWVLAGCNQVVASNCNCGNVKGLT (listed as Enterococcus faecium) [LWP 50-52 Signal Peptide, signal peptide isolated from Enterococcus faecium LWP 50-52, stimulates bacteriocin 50-52 production]","6,553,600 AU/ml",4,2.4 mg/mL,"2,730,665 AU/mg",360 mg,about 360 mg,about 8.1,did not possess antagonistic activity,,,,,
"WNKYKTNWVLSVCNTGCACAAVKGLT (listed as Streptococcus cricetus) [LWP 760 Signal Peptide, signal peptide isolated from Streptococcus cricetus LWP 760, stimulates bacteriocin 760 production]",,,,,,,about 8.9,did not possess antagonistic activity,"13,107,200 AU/ml",4.25,3.4 mg/mL,510 mg,"3,855,058 AU/mg"
